# Reference: patent publication US20210255193A1, “LYSINE REACTIVE PROBES AND USES THEREOF” (The Scripps Research Institute, priority 2017, published 2021)
# Experiments:
# Test in all cases: competitive isoTOP-ABPP
# Format in all cases: binding
# [1] = target: T1, ACBD3 Golgi resident protein GCP60 (Homo sapiens, UniProt Q9H3P7); set-up: key to isoTOP-ABPP reactivity ratio at lysine Q9H3P7_K117: R = MS1 peak area ratio, DMSO (heavy) / compound-treated (light); details: for isoTOP-ABPP reactivity ratio at lysine Q9H3P7_K117 / isoTOP-ABPP ratio (R) at liganded lysine Q9H3P7_K117: 50 uM, in vitro; for isoTOP-ABPP reactivity ratio at lysine Q9H3P7_K117: 231 sol; for isoTOP-ABPP ratio (R) at liganded lysine Q9H3P7_K117: sol, 231; for isoTOP-ABPP ratio, lysine Q9H3P7_K117: 50 uM_231_sol_in vitro
# T1 construct: isoTOP-ABPP experiments performed in cell lysates (in vitro); endogenous in cells; host or cells: soluble proteome of human cancer cell lines (MDA-MB-231; Ramos and Jurkat also prepared)
# T1 sequence (Q9H3P7 1-528): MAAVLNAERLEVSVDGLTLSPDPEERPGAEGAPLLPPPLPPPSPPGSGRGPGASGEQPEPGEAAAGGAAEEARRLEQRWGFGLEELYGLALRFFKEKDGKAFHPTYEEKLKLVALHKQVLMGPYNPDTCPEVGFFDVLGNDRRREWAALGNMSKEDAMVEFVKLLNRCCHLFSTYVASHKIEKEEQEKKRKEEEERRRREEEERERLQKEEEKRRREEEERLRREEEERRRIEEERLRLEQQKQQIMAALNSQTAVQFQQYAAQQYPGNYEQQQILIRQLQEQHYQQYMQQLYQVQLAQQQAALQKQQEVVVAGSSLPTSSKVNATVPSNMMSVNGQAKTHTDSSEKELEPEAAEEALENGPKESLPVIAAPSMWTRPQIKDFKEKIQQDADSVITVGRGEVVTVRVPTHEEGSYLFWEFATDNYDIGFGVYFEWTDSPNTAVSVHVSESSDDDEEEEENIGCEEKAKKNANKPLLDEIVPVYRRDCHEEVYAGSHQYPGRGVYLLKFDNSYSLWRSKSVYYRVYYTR
# Protocol: (§1) In vitro covalent fragment treatment for isoTOP-ABPP. All compounds were made up as solutions in DMSO (100×) and were used at a final concentration of 50 μM for activated esters and 100 μM for guanidinylating agents. For each profiling sample, 0.5 ml of lysate was treated with 5 μl of the 100× compound stock solution or 5 μl of DMSO. Samples were treated with activated esters for
# (§2) STP-alkyne labeling and click chemistry. For concentration-dependent reactivity measurements by isoTOP-ABPP, 0.5 ml proteome aliquots were treated at ambient temperature with 1 mM STP-alkyne 1 (5 μl of 100 mM stock in DMSO) and 0.1 mM STP alkyne 1 (5 μl of 10 mM stock in DMSO), respectively. For competitive isoTOP-ABPP, after in vitro fragment treatment (detailed above), the samples were labeled for 1 h at ambient temperature with 0.1 mM STP-alkyne 1 (5 μl of 10 mM stock in DMSO). Samples were conjugated by copper-mediated azide-alkyne cycloaddition (CuAAC) to either the light (1 mM STP-alkyne or fragment treated) or heavy (0.1 mM STP-alkyne or DMSO treated) TEV tags (10 μl of 5 mM stocks in DMSO, final concentration=100 μM) using tris(2-carboxyethyl)phosphine hydrochloride
# (§3) R value calculation and processing. The ratios of light and heavy MS1 peaks for each unique peptide were quantified with a CIMAGE software using default parameters (3 MS1 acquisitions per peak and signal to noise threshold set to 2.5). For reactivity measurements by isoTOP-ABPP, the R value was calculated from the ratio of MS1 peak areas, comparing the 1 mM STP alkyne sample (light TEV tag) with the 0.1 mM STP alkyne sample (heavy TEV tag). For competitive isoTOP-ABPP, the R value was calculated from the ratio of MS1 peak areas, comparing the DMSO treated sample (heavy TEV tag) with the compound treated sample (light TEV tag). […] Ratios for unique peptide entries are calculated for each experiment; overlapping peptides with the same modified lysine (for example, different charge states, MudPIT chromatographic steps or tryptic termini) are grouped together and the median ratio is reported as the final ratio (R). The peptide ratios reported by CIMAGE were further filtered to ensure the removal or correction of low-quality ratios in each individual data set. The quality filters applied were the following: removal of half tryptic peptides; for ratios with high standard deviations from the median (90% of the median or above) the lowest ratio was taken instead of the median; removal of peptides with R=20 and only a single MS2 event triggered during the elution of the parent ion; manual annotation of all the peptides with ratios of 20, removing any peptides with low quality elution profiles that remained after the previous curation steps (only done for competitive isoTOP-ABPP).
# (§4) Cross-data processing for fragment screening. For compound treated samples, biological replicates of the same condition were averaged, if the standard deviation was below 60% of the mean; otherwise, for lysines with at least one R value <4 for a particular compound, the lowest value of the ratio set was taken. For lysines, where all R values for a particular compound were ≥4, the average was reported. For peptides containing several possible modified lysines, the lysine with the highest number of quantification events was used for analysis and the remaining, redundant peptides were reported as alternative modification sites. Peptides included in the aggregate dataset (those used for further bioinformatics and statistical analyses) were required to have been quantified in 2 experiments for competitive isoTOP-ABPP. Lysines were categorized as liganded, if they had at least one ratio R≥4 (hit fragments). For liganded lysines with R=20 for all liganding events, lysines were required to have been quantified with R=20 in two separate experiments and were further required to have been quantified with R<20 in one additional experiment.
# [2] = target: T2, NUDT2 Bis(5-nucleosyl)-tetraphosphatase (Homo sapiens, UniProt P50583); set-up: key to isoTOP-ABPP reactivity ratio at lysine P50583_K89: R = MS1 peak area ratio, DMSO (heavy) / compound-treated (light); details: for isoTOP-ABPP reactivity ratio at lysine P50583_K89 / isoTOP-ABPP ratio (R) at liganded lysine P50583_K89: 50 uM, in vitro; for isoTOP-ABPP reactivity ratio at lysine P50583_K89: 231 sol; for isoTOP-ABPP ratio (R) at liganded lysine P50583_K89: sol, 231; for isoTOP-ABPP ratio, lysine P50583_K89: 50 uM_231_sol_in vitro, possible other lysine P50583_K87
# T2 construct: isoTOP-ABPP experiments performed in cell lysates (in vitro); endogenous in cells
# Protocol: as §1, §2, §3, §4
# [3] = target: T3, KIAA1967 DBIRD complex subunit KIAA1967 (Homo sapiens, UniProt Q8N163); details: for isoTOP-ABPP reactivity ratio at lysine Q8N163_K97 / isoTOP-ABPP reactivity ratio at lysine Q8N163_K112 / isoTOP-ABPP ratio (R) at liganded lysine Q8N163_K97 / isoTOP-ABPP ratio (R) at liganded lysine Q8N163_K112: 50 uM, in vitro; for isoTOP-ABPP reactivity ratio at lysine Q8N163_K97 / isoTOP-ABPP reactivity ratio at lysine Q8N163_K112: 231 sol; for isoTOP-ABPP ratio (R) at liganded lysine Q8N163_K97 / isoTOP-ABPP ratio (R) at liganded lysine Q8N163_K112: sol, 231; for isoTOP-ABPP ratio, lysine Q8N163_K97 / isoTOP-ABPP ratio, lysine Q8N163_K112: 50 uM_231_sol_in vitro
# T3 construct: isoTOP-ABPP experiments performed in cell lysates (in vitro); endogenous in cells; host or cells: soluble proteome of human cancer cell lines (MDA-MB-231; Ramos and Jurkat also prepared)
# Protocol: as §1, §2, §3, §4
# [4] = target: T4, MAP1LC3B Microtubule-associated proteins 1A/1B light chain (Homo sapiens, UniProt Q9GZQ8); set-up: key to isoTOP-ABPP reactivity ratio at lysine Q9GZQ8_K51: R = MS1 peak area ratio, DMSO (heavy) / compound-treated (light); details: for isoTOP-ABPP reactivity ratio at lysine Q9GZQ8_K51 / isoTOP-ABPP ratio (R) at liganded lysine Q9GZQ8_K51: 50 uM, in vitro; for isoTOP-ABPP reactivity ratio at lysine Q9GZQ8_K51: 231 sol; for isoTOP-ABPP ratio (R) at liganded lysine Q9GZQ8_K51: sol, 231; for isoTOP-ABPP ratio, lysine Q9GZQ8_K51: 50 uM_231_sol_in vitro
# T4 construct: isoTOP-ABPP experiments performed in cell lysates (in vitro); endogenous in cells; host or cells: soluble proteome of human cancer cell lines (MDA-MB-231; Ramos and Jurkat also prepared)
# Protocol: as §1, §2, §3, §4
# T3 sequence (Q8N163 whole entry, one chain of several): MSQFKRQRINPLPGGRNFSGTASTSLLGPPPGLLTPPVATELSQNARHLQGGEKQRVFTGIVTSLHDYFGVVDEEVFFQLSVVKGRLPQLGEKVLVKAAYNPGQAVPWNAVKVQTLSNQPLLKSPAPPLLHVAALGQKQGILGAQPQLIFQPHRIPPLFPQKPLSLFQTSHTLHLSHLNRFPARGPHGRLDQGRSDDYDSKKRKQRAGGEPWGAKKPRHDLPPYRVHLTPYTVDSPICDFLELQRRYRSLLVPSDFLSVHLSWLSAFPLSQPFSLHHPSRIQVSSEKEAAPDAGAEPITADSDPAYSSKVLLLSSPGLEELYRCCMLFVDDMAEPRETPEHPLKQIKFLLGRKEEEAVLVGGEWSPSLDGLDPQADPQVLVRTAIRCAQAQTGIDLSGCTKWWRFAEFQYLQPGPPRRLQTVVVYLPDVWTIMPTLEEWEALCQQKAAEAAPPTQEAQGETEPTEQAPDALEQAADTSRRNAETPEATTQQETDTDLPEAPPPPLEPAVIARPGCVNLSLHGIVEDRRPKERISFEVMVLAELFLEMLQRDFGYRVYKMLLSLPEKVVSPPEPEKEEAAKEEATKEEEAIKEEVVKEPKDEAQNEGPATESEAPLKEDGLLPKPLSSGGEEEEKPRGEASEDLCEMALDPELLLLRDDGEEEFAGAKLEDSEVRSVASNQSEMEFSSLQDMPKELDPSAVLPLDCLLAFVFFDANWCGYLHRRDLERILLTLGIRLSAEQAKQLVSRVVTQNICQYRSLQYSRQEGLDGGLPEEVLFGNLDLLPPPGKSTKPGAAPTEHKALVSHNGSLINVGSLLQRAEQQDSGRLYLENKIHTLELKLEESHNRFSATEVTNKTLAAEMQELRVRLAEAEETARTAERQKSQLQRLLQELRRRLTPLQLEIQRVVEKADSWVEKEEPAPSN
# T2 sequence (P50583 whole entry): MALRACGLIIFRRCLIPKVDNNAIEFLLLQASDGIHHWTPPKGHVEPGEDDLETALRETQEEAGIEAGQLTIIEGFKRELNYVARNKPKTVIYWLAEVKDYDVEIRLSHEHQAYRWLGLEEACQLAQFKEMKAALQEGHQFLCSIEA
SMILES,isoTOP-ABPP ratio (R) at liganded lysine Q9H3P7_K117 [1],isoTOP-ABPP ratio (R) at liganded lysine P50583_K89 [2],isoTOP-ABPP ratio (R) at liganded lysine Q8N163_K97 [3],isoTOP-ABPP ratio (R) at liganded lysine Q8N163_K112 [3],isoTOP-ABPP ratio (R) at liganded lysine Q9GZQ8_K51 [4],further results
"O=C(Oc1ccc([N+](=O)[O-])cc1[N+](=O)[O-])C(c1ccccc1)c1ccccc1 [fragment 30, 2,4-Dinitrophenyl 2,2-diphenylacetate]",,,,,,isoTOP-ABPP reactivity ratio at lysine Q9H3P7_K117 [1]: 1.7; isoTOP-ABPP reactivity ratio at lysine P50583_K89 [2]: 1.1; isoTOP-ABPP reactivity ratio at lysine Q8N163_K97 [3]: 1.0; isoTOP-ABPP reactivity ratio at lysine Q8N163_K112 [3]: 1.4; isoTOP-ABPP reactivity ratio at lysine Q9GZQ8_K51 [4]: 1.2
"O=C(Oc1ccc([N+](=O)[O-])cc1[N+](=O)[O-])c1cc(C(F)(F)F)cc(C(F)(F)F)c1 [fragment 31, 2,4-Dinitrophenyl 3,5-bis(trifluoromethyl)benzoate]",,,,,,isoTOP-ABPP reactivity ratio at lysine Q9H3P7_K117 [1]: 1.1; isoTOP-ABPP reactivity ratio at lysine P50583_K89 [2]: 0.8; isoTOP-ABPP reactivity ratio at lysine Q8N163_K97 [3]: 0.9; isoTOP-ABPP reactivity ratio at lysine Q8N163_K112 [3]: 1.0; isoTOP-ABPP reactivity ratio at lysine Q9GZQ8_K51 [4]: 1.1
"Cn1cc(CC(=O)Oc2ccc([N+](=O)[O-])cc2[N+](=O)[O-])c2ccccc21 [fragment 32, 2,4-Dinitrophenyl 2-(1-methyl-1H-indol-3-yl)acetate]",,,,,,isoTOP-ABPP reactivity ratio at lysine Q9H3P7_K117 [1]: 1.3; isoTOP-ABPP reactivity ratio at lysine P50583_K89 [2]: 3.7; isoTOP-ABPP reactivity ratio at lysine Q8N163_K97 [3]: 1.1; isoTOP-ABPP reactivity ratio at lysine Q8N163_K112 [3]: 1.2; isoTOP-ABPP reactivity ratio at lysine Q9GZQ8_K51 [4]: 0.9
"COc1cc(CCC(=O)Oc2ccc([N+](=O)[O-])cc2[N+](=O)[O-])cc(OC)c1OC [fragment 33, 2,4-Dinitrophenyl 3-(3,4,5-trimethoxyphenyl)propanoate]",,,,,,isoTOP-ABPP reactivity ratio at lysine Q9H3P7_K117 [1]: 1.1; isoTOP-ABPP reactivity ratio at lysine P50583_K89 [2]: 1.9; isoTOP-ABPP reactivity ratio at lysine Q8N163_K97 [3]: 0.7; isoTOP-ABPP reactivity ratio at lysine Q8N163_K112 [3]: 0.9; isoTOP-ABPP reactivity ratio at lysine Q9GZQ8_K51 [4]: 0.8
"O=C(Oc1ccc([N+](=O)[O-])cc1[N+](=O)[O-])C1CCN(C(=O)OCc2ccccc2)CC1 [fragment 34, 1-Benzyl 4-(2,4-dinitrophenyl) piperidine-1,4-dicarboxylate]",1.1,1.0,1.3,1.0,1.0,
"O=C(Oc1ccc([N+](=O)[O-])cc1[N+](=O)[O-])c1ccc2ccccc2n1 [fragment 35, 2,4-Dinitrophenyl quinoline-2-carboxylate]",1.3,1.6,0.8,,1.0,
"O=C(CCc1coc2cc(F)ccc2c1=O)Oc1ccc([N+](=O)[O-])cc1[N+](=O)[O-] [fragment 36, 2,4-Dinitrophenyl 3-(7-fluoro-4-oxo-4H-chromen-3-yl)propanoate]",1.4,0.9,0.9,1.1,0.8,
"O=C(Oc1ccc([N+](=O)[O-])cc1[N+](=O)[O-])c1ccc(-c2ccccc2)cc1 [fragment 37, 2,4-Dinitrophenyl [1,1′-biphenyl]-4-carboxylate]",0.9,1.4,1.0,1.1,0.9,
"O=C(Oc1ccc([N+](=O)[O-])cc1[N+](=O)[O-])c1ccc(Oc2ccccc2)cc1 [fragment 39, 2,4-Dinitrophenyl 4-phenoxybenzoate]",0.9,2.4,0.9,1.1,0.9,
"O=C(Oc1ccc([N+](=O)[O-])cc1[N+](=O)[O-])c1ccccc1Nc1cccc(C(F)(F)F)c1 [fragment 40, 2,4-Dinitrophenyl 2-((3-(trifluoromethyl)phenyl)amino)benzoate]",0.9,0.9,1.0,1.5,1.0,
"CC(C)(C)OC(=O)NCCCC(=O)Oc1ccc([N+](=O)[O-])cc1[N+](=O)[O-] [fragment 41, 2,4-Dinitrophenyl 4-((tert-butoxycarbonyl)amino)butanoate]",1.2,1.0,1.0,1.3,0.9,
"O=C(Oc1ccc([N+](=O)[O-])cc1[N+](=O)[O-])C(c1ccccc1)(c1ccccc1)c1ccccc1 [fragment 42, 2,4-Dinitrophenyl 2,2,2-triphenylacetate]",1.0,1.0,1.0,1.1,0.9,
"N#Cc1ccc(C(=O)Oc2ccc([N+](=O)[O-])cc2[N+](=O)[O-])cc1 [fragment 44, 2,4-Dinitrophenyl 4-cyanobenzoate]",,,,,,"isoTOP-ABPP ratio, lysine Q9H3P7_K117 [1]: 0.8; isoTOP-ABPP ratio, lysine P50583_K89 [2]: 0.9; isoTOP-ABPP ratio, lysine Q8N163_K97 [3]: 0.8; isoTOP-ABPP ratio, lysine Q8N163_K112 [3]: 1.0; isoTOP-ABPP ratio, lysine Q9GZQ8_K51 [4]: 0.9"
"O=C(CCc1ccc2c(c1)OCO2)Oc1ccc([N+](=O)[O-])cc1[N+](=O)[O-] [fragment 45, 2,4-Dinitrophenyl 3-(benzo[d][1,3]dioxol-5-yl)propanoate]",,,,,,"isoTOP-ABPP ratio, lysine Q9H3P7_K117 [1]: 1.1; isoTOP-ABPP ratio, lysine P50583_K89 [2]: 1.7; isoTOP-ABPP ratio, lysine Q8N163_K97 [3]: 0.8; isoTOP-ABPP ratio, lysine Q8N163_K112 [3]: 1.2; isoTOP-ABPP ratio, lysine Q9GZQ8_K51 [4]: 1.0"
